# Reference: PubChem BioAssay (NCI)
#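 Following 48 hours of exposure in 96-well plates, responses at five concentrations were used to interpolate endpoints linearly. GI50: concentration for 50% inhibition of growth. TGI denotes the concentration required for complete inhibition of growth.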
# Key:
# Experiment in all cases: growth of human tumour cells (NCI), 48 h
# SK-OV-3 ovarian = test system: SK-OV-3 ovarian
# 786-0 renal = test system: 786-0 renal
# TK-10 renal = test system: TK-10 renal
# RXF 393 renal = test system: RXF 393 renal
# ACHN renal = test system: ACHN renal
# MALME-3M melanoma = test system: MALME-3M melanoma
# SF-295 CNS = test system: SF-295 CNS
# NCI-H23 lung = test system: NCI-H23 lung
# SF-268 CNS = test system: SF-268 CNS
# UACC-62 melanoma = test system: UACC-62 melanoma
# MCF7 breast = test system: MCF7 breast
# UACC-257 melanoma = test system: UACC-257 melanoma
# LOX IMVI melanoma = test system: LOX IMVI melanoma
# K-562 leukemia = test system: K-562 leukemia
# HCC-2998 colon = test system: HCC-2998 colon
# PC-3 prostate = test system: PC-3 prostate
# DU-145 prostate = test system: DU-145 prostate
# SR leukemia = test system: SR leukemia
# A549 NSCLC = test system: A549 NSCLC
# HCT-116 colon = test system: HCT-116 colon
# HS 578T breast = test system: HS 578T breast
# SW-620 colon = test system: SW-620 colon
# HT29 colon = test system: HT29 colon
# HCT-15 colon = test system: HCT-15 colon
# EKVX NSCLC = test system: EKVX NSCLC
# OVCAR-8 ovarian = test system: OVCAR-8 ovarian
# HL-60(TB) leukemia = test system: HL-60(TB) leukemia
# U251 CNS = test system: U251 CNS
# MDA-MB-435 = test system: MDA-MB-435
# HOP-92 NSCLC = test system: HOP-92 NSCLC
# SNB-19 CNS = test system: SNB-19 CNS
# M14 melanoma = test system: M14 melanoma
# NCI-H226 lung = test system: NCI-H226 lung
# MOLT-4 leukemia = test system: MOLT-4 leukemia
# NCI-H460 lung = test system: NCI-H460 lung
# NCI/ADR-RES ovarian = test system: NCI/ADR-RES ovarian
# T-47D breast = test system: T-47D breast
# OVCAR-3 ovarian = test system: OVCAR-3 ovarian
# BT-549 breast = test system: BT-549 breast
# KM12 colon = test system: KM12 colon
# SF-539 CNS = test system: SF-539 CNS
# A498 renal = test system: A498 renal
# MDA-MB-231 breast = test system: MDA-MB-231 breast
# SK-MEL-5 melanoma = test system: SK-MEL-5 melanoma
# OVCAR-4 ovarian = test system: OVCAR-4 ovarian
# SN12C renal = test system: SN12C renal
# COLO 205 colon = test system: COLO 205 colon
# CAKI-1 renal = test system: CAKI-1 renal
# SK-MEL-28 melanoma = test system: SK-MEL-28 melanoma
# SNB-75 CNS = test system: SNB-75 CNS
# OVCAR-5 ovarian = test system: OVCAR-5 ovarian
# RPMI-8226 leukemia = test system: RPMI-8226 leukemia
# SK-MEL-2 melanoma = test system: SK-MEL-2 melanoma
# CCRF-CEM leukemia = test system: CCRF-CEM leukemia
# NCI-H522 lung = test system: NCI-H522 lung
# HOP-62 NSCLC = test system: HOP-62 NSCLC
# IGROV1 ovarian = test system: IGROV1 ovarian
smiles,measurement,setting,value
COC(=O)c1cc2c3ccccc3n3c(=O)c4cc5cc(OC)c(N(S(=O)(=O)c6ccc(C)cc6)S(=O)(=O)c6ccc(C)cc6)cc5nc4c(n1)c23,GI50,SK-OV-3 ovarian,4.53 µM
same,TGI,SK-OV-3 ovarian,81.3 µM
same,GI50,786-0 renal,3.23 µM
same,TGI,786-0 renal,14.5 µM
same,GI50,TK-10 renal,8.92 µM
same,TGI,TK-10 renal,23.6 µM
same,GI50,RXF 393 renal,7.56 µM
same,TGI,RXF 393 renal,26.1 µM
same,GI50,ACHN renal,6.03 µM
same,TGI,ACHN renal,22.2 µM
same,GI50,MALME-3M melanoma,> 100 µM
same,TGI,MALME-3M melanoma,> 100 µM
same,GI50,SF-295 CNS,5.15 µM
same,TGI,SF-295 CNS,21.7 µM
same,GI50,NCI-H23 lung,16.7 µM
same,TGI,NCI-H23 lung,63.2 µM
same,GI50,SF-268 CNS,7.78 µM
same,TGI,SF-268 CNS,> 100 µM
same,GI50,UACC-62 melanoma,24.9 µM
same,TGI,UACC-62 melanoma,> 100 µM
same,GI50,MCF7 breast,> 100 µM
same,TGI,MCF7 breast,> 100 µM
same,GI50,UACC-257 melanoma,> 100 µM
same,TGI,UACC-257 melanoma,> 100 µM
same,GI50,LOX IMVI melanoma,23.5 µM
same,TGI,LOX IMVI melanoma,> 100 µM
same,GI50,K-562 leukemia,47.2 µM
same,TGI,K-562 leukemia,> 100 µM
same,GI50,HCC-2998 colon,> 100 µM
same,TGI,HCC-2998 colon,> 100 µM
same,GI50,PC-3 prostate,> 100 µM
same,TGI,PC-3 prostate,> 100 µM
same,GI50,DU-145 prostate,32 µM
same,TGI,DU-145 prostate,> 100 µM
same,GI50,SR leukemia,41.4 µM
same,TGI,SR leukemia,> 100 µM
same,GI50,A549 NSCLC,> 100 µM
same,TGI,A549 NSCLC,> 100 µM
same,GI50,HCT-116 colon,13.5 µM
same,TGI,HCT-116 colon,59.7 µM
same,GI50,HS 578T breast,4.97 µM
same,TGI,HS 578T breast,54.2 µM
same,GI50,SW-620 colon,> 100 µM
same,TGI,SW-620 colon,> 100 µM
same,GI50,HT29 colon,> 100 µM
same,TGI,HT29 colon,> 100 µM
same,GI50,HCT-15 colon,> 100 µM
same,TGI,HCT-15 colon,> 100 µM
same,GI50,EKVX NSCLC,39.2 µM
same,TGI,EKVX NSCLC,> 100 µM
same,GI50,OVCAR-8 ovarian,67.9 µM
same,TGI,OVCAR-8 ovarian,> 100 µM
same,GI50,HL-60(TB) leukemia,74.7 µM
same,TGI,HL-60(TB) leukemia,> 100 µM
same,GI50,U251 CNS,2.62 µM
same,TGI,U251 CNS,13.4 µM
same,GI50,MDA-MB-435,> 100 µM
same,TGI,MDA-MB-435,> 100 µM
same,GI50,HOP-92 NSCLC,4.42 µM
same,TGI,HOP-92 NSCLC,21.3 µM
same,GI50,SNB-19 CNS,5.8 µM
same,TGI,SNB-19 CNS,32 µM
same,GI50,M14 melanoma,32.7 µM
same,TGI,M14 melanoma,> 100 µM
same,GI50,NCI-H226 lung,23.9 µM
same,TGI,NCI-H226 lung,> 100 µM
same,GI50,MOLT-4 leukemia,35.2 µM
same,TGI,MOLT-4 leukemia,> 100 µM
same,GI50,NCI-H460 lung,> 100 µM
same,TGI,NCI-H460 lung,> 100 µM
same,GI50,NCI/ADR-RES ovarian,> 100 µM
same,TGI,NCI/ADR-RES ovarian,> 100 µM
same,GI50,T-47D breast,> 100 µM
same,TGI,T-47D breast,> 100 µM
same,GI50,OVCAR-3 ovarian,> 100 µM
same,TGI,OVCAR-3 ovarian,> 100 µM
same,GI50,BT-549 breast,11 µM
same,TGI,BT-549 breast,27.8 µM
same,GI50,KM12 colon,> 100 µM
same,TGI,KM12 colon,> 100 µM
same,GI50,SF-539 CNS,13 µM
same,TGI,SF-539 CNS,30.6 µM
same,GI50,A498 renal,10.2 µM
same,TGI,A498 renal,29.6 µM
same,GI50,MDA-MB-231 breast,9.62 µM
same,TGI,MDA-MB-231 breast,32.3 µM
same,GI50,SK-MEL-5 melanoma,> 100 µM
same,TGI,SK-MEL-5 melanoma,> 100 µM
same,GI50,OVCAR-4 ovarian,> 100 µM
same,TGI,OVCAR-4 ovarian,> 100 µM
same,GI50,SN12C renal,95.7 µM
same,TGI,SN12C renal,> 100 µM
same,GI50,COLO 205 colon,> 100 µM
same,TGI,COLO 205 colon,> 100 µM
same,GI50,CAKI-1 renal,> 100 µM
same,TGI,CAKI-1 renal,> 100 µM
same,GI50,SK-MEL-28 melanoma,> 100 µM
same,TGI,SK-MEL-28 melanoma,> 100 µM
same,GI50,SNB-75 CNS,3.99 µM
same,TGI,SNB-75 CNS,20.4 µM
same,GI50,OVCAR-5 ovarian,> 100 µM
same,TGI,OVCAR-5 ovarian,> 100 µM
N#Cc1c(NC(=O)c2cccc3ccccc23)sc2c1CCCC2,GI50,786-0 renal,0.101 µM
same,TGI,786-0 renal,> 25 µM
same,GI50,RXF 393 renal,0.0331 µM
same,TGI,RXF 393 renal,0.121 µM
same,GI50,ACHN renal,0.34 µM
same,TGI,ACHN renal,> 25 µM
same,GI50,MALME-3M melanoma,0.0174 µM
same,TGI,MALME-3M melanoma,> 25 µM
same,GI50,SF-295 CNS,0.0109 µM
same,TGI,SF-295 CNS,> 25 µM
same,GI50,NCI-H23 lung,0.0874 µM
same,TGI,NCI-H23 lung,> 25 µM
same,GI50,SF-268 CNS,0.171 µM
same,TGI,SF-268 CNS,> 25 µM
same,GI50,UACC-62 melanoma,0.018 µM
same,TGI,UACC-62 melanoma,> 25 µM
same,GI50,MCF7 breast,0.09 µM
same,TGI,MCF7 breast,> 25 µM
same,TGI,UACC-257 melanoma,> 25 µM
same,GI50,LOX IMVI melanoma,0.0625 µM
same,TGI,LOX IMVI melanoma,> 25 µM
same,GI50,K-562 leukemia,0.0115 µM
same,TGI,K-562 leukemia,> 25 µM
same,GI50,HCC-2998 colon,0.0751 µM
same,TGI,HCC-2998 colon,> 7.9 µM
same,GI50,PC-3 prostate,0.079 µM
same,TGI,PC-3 prostate,> 25 µM
same,GI50,DU-145 prostate,0.0759 µM
same,TGI,DU-145 prostate,2.86 µM
same,GI50,SR leukemia,0.026 µM
same,TGI,SR leukemia,> 9.97 µM
same,GI50,A549 NSCLC,0.0788 µM
same,TGI,A549 NSCLC,> 25 µM
same,GI50,RPMI-8226 leukemia,0.0872 µM
same,TGI,RPMI-8226 leukemia,> 25 µM
same,GI50,HCT-116 colon,0.0673 µM
same,TGI,HCT-116 colon,5.37 µM
same,GI50,HS 578T breast,0.0156 µM
same,GI50,SW-620 colon,0.0245 µM
same,TGI,SW-620 colon,> 25 µM
same,GI50,SK-MEL-2 melanoma,0.137 µM
same,TGI,SK-MEL-2 melanoma,> 25 µM
same,GI50,HT29 colon,0.0716 µM
same,TGI,HT29 colon,0.224 µM
same,GI50,HCT-15 colon,0.0775 µM
same,TGI,HCT-15 colon,> 25 µM
same,GI50,EKVX NSCLC,0.132 µM
same,TGI,EKVX NSCLC,> 25 µM
same,GI50,CCRF-CEM leukemia,0.0422 µM
same,TGI,CCRF-CEM leukemia,> 25 µM
same,GI50,OVCAR-8 ovarian,0.0918 µM
same,TGI,OVCAR-8 ovarian,> 25 µM
same,GI50,HL-60(TB) leukemia,0.0545 µM
same,GI50,U251 CNS,0.0622 µM
same,TGI,U251 CNS,> 25 µM
same,GI50,MDA-MB-435,0.00636 µM
same,TGI,MDA-MB-435,0.0193 µM
same,GI50,HOP-92 NSCLC,0.457 µM
same,TGI,HOP-92 NSCLC,> 25 µM
same,GI50,SNB-19 CNS,0.107 µM
same,TGI,SNB-19 CNS,> 25 µM
same,GI50,M14 melanoma,0.0249 µM
same,TGI,M14 melanoma,0.116 µM
same,GI50,NCI-H226 lung,0.195 µM
same,TGI,NCI-H226 lung,> 25 µM
same,GI50,MOLT-4 leukemia,0.102 µM
same,TGI,MOLT-4 leukemia,> 25 µM
same,GI50,NCI-H522 lung,0.024 µM
same,TGI,NCI-H522 lung,0.259 µM
same,GI50,NCI-H460 lung,0.0785 µM
same,TGI,NCI-H460 lung,> 25 µM
same,GI50,NCI/ADR-RES ovarian,0.0128 µM
same,TGI,NCI/ADR-RES ovarian,0.117 µM
same,GI50,T-47D breast,0.101 µM
same,TGI,T-47D breast,> 20.1 µM
same,GI50,HOP-62 NSCLC,0.0825 µM
same,TGI,HOP-62 NSCLC,> 25 µM
same,GI50,IGROV1 ovarian,0.177 µM
same,TGI,IGROV1 ovarian,> 25 µM
same,GI50,OVCAR-3 ovarian,0.0417 µM
same,TGI,OVCAR-3 ovarian,0.107 µM
same,GI50,BT-549 breast,0.144 µM
same,TGI,BT-549 breast,> 20.9 µM
same,GI50,KM12 colon,0.105 µM
same,TGI,KM12 colon,> 25 µM
same,GI50,SF-539 CNS,0.0274 µM
same,TGI,SF-539 CNS,> 25 µM
same,GI50,A498 renal,0.0171 µM
same,TGI,A498 renal,1.83 µM
same,GI50,MDA-MB-231 breast,0.148 µM
same,TGI,MDA-MB-231 breast,> 14.5 µM
same,GI50,SK-MEL-5 melanoma,0.0844 µM
same,TGI,SK-MEL-5 melanoma,1.62 µM
same,GI50,OVCAR-4 ovarian,0.19 µM
same,TGI,OVCAR-4 ovarian,> 25 µM
same,GI50,SN12C renal,0.157 µM
same,TGI,SN12C renal,> 25 µM
same,GI50,COLO 205 colon,0.0723 µM
same,TGI,COLO 205 colon,0.193 µM
same,GI50,CAKI-1 renal,0.0637 µM
same,TGI,CAKI-1 renal,> 25 µM
same,GI50,SK-MEL-28 melanoma,0.0401 µM
same,TGI,SK-MEL-28 melanoma,> 25 µM
same,GI50,SNB-75 CNS,0.0351 µM
same,TGI,SNB-75 CNS,> 25 µM
same,GI50,OVCAR-5 ovarian,0.139 µM
same,TGI,OVCAR-5 ovarian,> 25 µM
